From patent publication US20060293307A1, “Oxazolidinone derivatives as antimicrobials” (priority 2002, published 2006)
Converted amounts (≈) assume the structure as drawn. Like-named read-outs stand apart in the source and are kept apart here.

Assays:
Experiment in all cases: MIC, agar incorporation method
S. aureus SG 511 = type: cell-based, Staphylococcus aureus
S. aureus (MRSA) 15187 = type: cell-based, Staphylococcus aureus
S. aureus (MRSA) 21299 = type: cell-based, Staphylococcus aureus
[1] = tested on: S. aureus (MRSA 33) Cipro R; type: cell-based, Staphylococcus aureus
[2] = tested on: S. epidermidis (MRSE) 23760; type: cell-based, Staphylococcus epidermidis
E. faecalis 21777 = type: cell-based
E. faecalis SP 346 (VRE) = type: cell-based
E. faecium 398(VRE) = type: cell-based, Enterococcus faecium
Salmonella 205 = type: cell-based; conditions: S. No. 26, Salmonella 205
Procedure: The compounds of the invention display antibacterial activity when tested by the agar incorporation method. The following minimum inhibitory concentrations (μg/ml) were obtained for representative compounds of the invention which are given below in the following tables.
Briefly, the compounds were dissolved in DMSO and doubling dilution of the compounds were incorporated into Meer Hilton agar before solidification. Inoculum was prepared by suspending 4 to 5 colonies into 5 ml of normal saline solution and adjusting the turbidity to 0.5 Macfarland turbidity standard tables (1.5×10^8 CFU/ml), after appropriate dilutions, 10^4 CFU/spot was transfered into the surface of dried plate and incubated for 18 hours (24 hours for MRSN studies). The concentration showing no growth of the inoculated culture was recorded as the MIC. Appropriate ATCC standard strains were simultaneously tested and result recorded only when the MIC's against standard antibiotics were within the acceptable range.

E. durans 581 = type: cell-based
K. oxytoca 49131 = type: cell-based
P. aeruginosa ATCC 27853 = type: cell-based
[3] = tested on: Serratia marcescens 12999; type: cell-based
S. pneumoniae AB-2 = type: cell-based, Streptococcus pneumoniae
S. pneumoniae AB4 = type: cell-based, Streptococcus pneumoniae
S. pneumoniae AB 10 = type: cell-based, Streptococcus pneumoniae
S. pneumoniae 217 = type: cell-based, Streptococcus pneumoniae
S. pneumoniae AB 16 = type: cell-based, Streptococcus pneumoniae
S. pneumoniae AB 21 = type: cell-based, Streptococcus pneumoniae
S. pneumoniae AB 23 = type: cell-based, Streptococcus pneumoniae
S. pneumoniae AB 25 = type: cell-based, Streptococcus pneumoniae
S. pneumoniae AB 29 = type: cell-based, Streptococcus pneumoniae
S. pneumoniae AB 30 = type: cell-based, Streptococcus pneumoniae
S. pneumoniae ATCC 49619 = type: cell-based, Streptococcus pneumoniae
S. pneumoniae AB 34 = type: cell-based, Streptococcus pneumoniae
S. pyogenes 19615 = type: cell-based, Streptococcus pyogenes
S. pyogenes 20361 = type: cell-based, Streptococcus pyogenes
S. pneumoniae 1251 = type: cell-based, Streptococcus pneumoniae
S pneumoniae 1294. = type: cell-based, Streptococcus pneumoniae
S. pneumoniae 1256 = type: cell-based, Streptococcus pneumoniae
S. pneumoniae 1275 = type: cell-based, Streptococcus pneumoniae
Moraxella cata. M2 = type: cell-based

CN[C@H](CC(C)C)C(=O)N[C@H]1C(=O)N[C@@H](CC(N)=O)C(=O)N[C@H]2C(=O)N[C@H]3C(=O)N[C@H](C(=O)N[C@H](C(=O)O)c4cc(O)cc(O)c4-c4cc3ccc4O)[C@H](O)c3ccc(c(Cl)c3)Oc3cc2cc(c3O[C@@H]2O[C@H](CO)[C@@H](O)[C@H](O)[C@H]2O[C@H]2C[C@](C)(N)[C@H](O)[C@H](C)O2)Oc2ccc(cc2Cl)[C@H]1O [Vancomycin, reference compound] gave an MIC (S. aureus SG 511; Staphylococcus aureus, SG511) of 0.5 µg/mL (≈ 0.345 µM), an MIC (S. aureus (MRSA) 15187; Staphylococcus aureus, MRSA) of 0.5 µg/mL (≈ 0.345 µM) and an MIC (S. aureus (MRSA) 21299; Staphylococcus aureus, MRSA) of 0.5 µg/mL (≈ 0.345 µM). The MIC ([1]; Staphylococcus aureus, MRSA) was 0.5 µg/mL (≈ 0.345 µM), the MIC ([2]; Staphylococcus epidermidis, MRSE) was 2 µg/mL (≈ 1.38 µM) and the MIC (E. faecalis 21777; Enterococcus faecalis, 21777) was 2 µg/mL (≈ 1.38 µM). The MIC (E. faecalis SP 346 (VRE); Enterococcus faecalis, VRE) was greater than 16 µg/mL, the MIC (E. faecium 398(VRE); Enterococcus faecium, VRE) was greater than 16 µg/mL and the MIC (Salmonella 205; read-out: MIC) was greater than 16 µg/mL. It also gave an MIC (E. durans 581; Enterococcus durans, 581) greater than 16 µg/mL, an MIC (K. oxytoca 49131; Klebsiella oxytoca, 49131) greater than 16 µg/mL and an MIC (P. aeruginosa ATCC 27853; Pseudomonas aeruginosa, ATCC27853) greater than 16 µg/mL. The MIC ([3]; Serratia marcescens, 12999) was greater than 16 µg/mL, the MIC (S. pneumoniae AB-2; Streptococcus pneumoniae, AB2) was 0.5 µg/mL (≈ 0.345 µM) and the MIC (S. pneumoniae AB4; Streptococcus pneumoniae, AB4) was 0.25 µg/mL (≈ 0.173 µM). For the same compound, the MIC (S. pneumoniae AB 10; Streptococcus pneumoniae, AB10) was 0.25 µg/mL (≈ 0.173 µM), the MIC (S. pneumoniae 217; Streptococcus pneumoniae, 217) was 0.5 µg/mL (≈ 0.345 µM) and the MIC (S. pneumoniae AB 16; Streptococcus pneumoniae, AB16) was 0.25 µg/mL (≈ 0.173 µM). For the same compound, the MIC (S. pneumoniae AB 21; Streptococcus pneumoniae, AB21) was 0.25 µg/mL (≈ 0.173 µM), the MIC (S. pneumoniae AB 23; Streptococcus pneumoniae, AB23) was 0.25 µg/mL (≈ 0.173 µM) and the MIC (S. pneumoniae AB 25; Streptococcus pneumoniae, AB25) was 0.25 µg/mL (≈ 0.173 µM). For the same compound, the MIC (S. pneumoniae AB 29; Streptococcus pneumoniae, AB29) was 0.25 µg/mL (≈ 0.173 µM), the MIC (S. pneumoniae AB 30; Streptococcus pneumoniae, AB30) was 0.25 µg/mL (≈ 0.173 µM) and the MIC (S. pneumoniae ATCC 49619; Streptococcus pneumoniae, ATCC49619) was 0.25 µg/mL (≈ 0.173 µM). It also gave an MIC (S. pneumoniae AB 34; Streptococcus pneumoniae, AB34) of 0.25 µg/mL (≈ 0.173 µM), an MIC (S. pyogenes 19615; Streptococcus pyogenes, 19615) of 0.5 µg/mL (≈ 0.345 µM) and an MIC (S. pyogenes 20361; Streptococcus pyogenes, 20361) of 0.5 µg/mL (≈ 0.345 µM). For the same compound, the MIC (S. pneumoniae 1251; Streptococcus pneumoniae, 1251) was 0.25 µg/mL (≈ 0.173 µM), the MIC (S pneumoniae 1294.; Streptococcus pneumoniae, 1294.) was 0.5 µg/mL (≈ 0.345 µM) and the MIC (S. pneumoniae 1256; Streptococcus pneumoniae, 1256) was 0.5 µg/mL (≈ 0.345 µM). The MIC (S. pneumoniae 1275; Streptococcus pneumoniae, 1275) was 0.5 µg/mL (≈ 0.345 µM) and the MIC (Moraxella cata. M2; Moraxella, CATA.M2) was greater than 8 µg/mL.
With CC(=O)NC[C@H]1CN(c2ccc(N3CCN(c4cc(C(OC(C)=O)OC(C)=O)sc4[N+](=O)[O-])CC3)c(F)c2)C(=O)O1 [Compound No. 5, (S)—N-[[3-[3-Fluoro-4-[4-{3-thienyl(2-nitro)-5-acetyloxy}methylacetate]-1-piperazinyl]phenyl]-2-oxo-5-oxazolidinyl]acetamide] the MIC (S. aureus SG 511; S. No. 3, S. aureus SG 511) was 0.25 µg/mL (≈ 0.421 µM), the MIC (S. aureus (MRSA) 15187; S. No. 4, S. aureus (MRSA) 15187) was 0.25 µg/mL (≈ 0.421 µM) and the MIC (S. aureus (MRSA) 21299; S. No. 5, S. aureus (MRSA) 21299) was 0.25 µg/mL (≈ 0.421 µM). It also gave an MIC ([1]; S. No. 7, S. aureus (MRSA 33) Cipro R) of 0.25 µg/mL (≈ 0.421 µM), an MIC ([2]; S. No. 11, S. epidermidis (MRSE) 23760) of less than 0.06 µg/mL and an MIC (E. faecalis 21777; S. No. 18, E. faecalis 21777) of 1 µg/mL (≈ 1.68 µM). It also gave an MIC (E. faecalis SP 346 (VRE); S. No. 20, E. faecalis SP 346 (VRE)) of 2 µg/mL (≈ 3.37 µM), an MIC (E. faecium 398(VRE); S. No. 22, E. faecium 398(VRE)) of 1 µg/mL (≈ 1.68 µM) and an MIC (Salmonella 205) greater than 8 µg/mL. For the same compound, the MIC (E. durans 581; S. No. 24, E. durans 581) was 2 µg/mL (≈ 3.37 µM), the MIC (K. oxytoca 49131; S. No. 27, K. oxytoca 49131) was greater than 8 µg/mL and the MIC (P. aeruginosa ATCC 27853; S. No. 28, P. aeruginosa ATCC 27853) was greater than 8 µg/mL. It also gave an MIC ([3]; S. No. 29, Serratia marcescens 12999) greater than 8 µg/mL, an MIC (S. pneumoniae AB-2; S. No. 31, S. pneumoniae AB-2) of 0.25 µg/mL (≈ 0.421 µM) and an MIC (S. pneumoniae AB4; S. No. 33, S. pneumoniae AB4) of 0.5 µg/mL (≈ 0.842 µM). For the same compound, the MIC (S. pneumoniae AB 10; S. No. 35, S. pneumoniae AB 10) was 0.25 µg/mL (≈ 0.421 µM), the MIC (S. pneumoniae 217; S. No. 38, S. pneumoniae 217) was 0.5 µg/mL (≈ 0.842 µM) and the MIC (S. pneumoniae AB 16; S. No. 39, S. pneumoniae AB 16) was 0.5 µg/mL (≈ 0.842 µM). The MIC (S. pneumoniae AB 21; S. No. 41, S. pneumoniae AB 21) was 0.5 µg/mL (≈ 0.842 µM), the MIC (S. pneumoniae AB 23; S. No. 43, S. pneumoniae AB 23) was 0.5 µg/mL (≈ 0.842 µM) and the MIC (S. pneumoniae AB 25; S. No. 45, S. pneumoniae AB 25) was 0.5 µg/mL (≈ 0.842 µM). For the same compound, the MIC (S. pneumoniae AB 29; S. No. 46, S. pneumoniae AB 29) was 0.5 µg/mL (≈ 0.842 µM), the MIC (S. pneumoniae AB 30; S. No. 47, S. pneumoniae AB 30) was 0.5 µg/mL (≈ 0.842 µM) and the MIC (S. pneumoniae ATCC 49619; S. No. 48, S. pneumoniae ATCC 49619) was 0.5 µg/mL (≈ 0.842 µM). The MIC (S. pneumoniae AB 34; S. No. 49, S. pneumoniae AB 34) was 0.5 µg/mL (≈ 0.842 µM), the MIC (S. pyogenes 19615; S. No. 51, S. pyogenes 19615) was 0.5 µg/mL (≈ 0.842 µM) and the MIC (S. pyogenes 20361; S. No. 53, S. pyogenes 20361) was 0.5 µg/mL (≈ 0.842 µM). For the same compound, the MIC (S. pneumoniae 1251; S. No. 54, S. pneumoniae 1251) was 0.5 µg/mL (≈ 0.842 µM), the MIC (S pneumoniae 1294.; S. No. 55, S pneumoniae 1294.) was 0.5 µg/mL (≈ 0.842 µM) and the MIC (S. pneumoniae 1256; S. No. 56, S. pneumoniae 1256) was 0.25 µg/mL (≈ 0.421 µM). It also gave an MIC (S. pneumoniae 1275; S. No. 57, S. pneumoniae 1275) of 0.25 µg/mL (≈ 0.421 µM) and an MIC (Moraxella cata. M2; S. No. 59, Moraxella cata. M2) of 2 µg/mL (≈ 3.37 µM).
